According to publication PMC9820559, “Investigation of the Fuzzy Complex between RSV Nucleoprotein and Phosphoprotein to Optimize an Inhibition Assay by Fluorescence Polarization” (International Journal of Molecular Sciences, 2022):
“And” between values parts separate entries of the source, which are not always exact repeats. Identical values can stand only once. Like-named read-outs stand apart in the source and are kept apart here. Ends that are not written are not given here. * marks the point of attachment. FITC = O=C1OC2(c3ccc(O)cc3Oc3cc(O)ccc32)c2ccc(NC(=S)*)cc21

Columns and labels:
RSV NNTD = molecular target: T1, RSV NNTD (Human respiratory syncytial virus A, UniProt P03418); test: Fluorescence polarization inhibition of NNTD binding to F11
T1 construct: The N-terminal domain NNTD (residues 31–252), containing a C-terminal 6x histidine tag; 6xHis (C); made in house; host or cells: E. coli BL21(DE3)
Protocol: We therefore tested competition between M76 and F11 by FP. Measurements were done in salt-free buffer to take advantage of the higher F11-NNTD affinity. The concentration of NNTD was set to 5 µM to benefit from a high range of FP values, comprised between FPmin and ~80% FPmax. […] We fitted the data with a Hill equation (Equation (12)), assuming that the maximal inhibition of F11 binding to the canonical site by M76 was obtained at saturation.
Fluorescence polarization measurements were carried out on a Paradigm Detection Platform (Beckman Coulter, Brea, CA, USA) operating with a microplate reader, a fluorescein detection cartridge (excitation range 485/20 nm, emission range 535/25 nm for both parallel and perpendicular components) and the SpectraMax Pro 6.1 software (Molecular Devices, San Jose, CA, USA). […] Mixing was done using the corresponding plate reader option. […] Data were recorded in top reading mode. […] Fluorescence polarization (FP) in mFP units was determined from the parallel (I∥) and perpendicular (I⊥) components of the emitted light according to Equation (4). A grating factor G of 1.2 was determined using 1 nM fluorescein in 1 mM NaOH and assuming a theoretical FP of 27 mFP [48]. Background signal was measured from wells containing only buffer, and the mean value was subtracted from each I∥ and I⊥ component. […]

RSV N-RNA complex = molecular target: T2, RSV N-RNA complex (Human respiratory syncytial virus A, UniProt P03418); test: Fluorescence polarization inhibition of N-RNA binding to fluorescent probes
T2 construct: Full-length N was produced by co-expression with the C-terminal domain of RSV P protein in E. coli BL21(DE3); made in house; host or cells: E. coli BL21(DE3), co-transformed with pET-N and pGEX-P(161–241)
Source text: We next performed inhibition experiments for the F11-(N-RNA) complex by M76 (Figure 4B). FP values decreased with increasing competitor concentration. At saturation, FP nearly reached the value of free F11, showing that the F11 peptide could be nearly completely displaced. Since the same concentration range was used for NNTD and N-RNA, poor solubility of M76 can be ruled out to explain the saturation observed before complete displacement of F11 in the presence NNTD (Figure 3C). This reinforces the hypothesis of a second binding site on NNTD, outside the canonical P-binding site. […]
To probe the potency of M76 as an inhibitor, we carried out competition experiments with the M76 molecule and several BCNn peptides. M76 was able to displace the fluorescent probes from N-RNA, and inhibition curves were obtained (Figure 8E). Since we used different N concentrations to have similar dynamic ranges of FP for the series of fluorescent peptides, we cannot directly compare M76 IC50s. However, Kis may be compared.
Fluorescence polarization measurements were carried out on a Paradigm Detection Platform (Beckman Coulter, Brea, CA, USA) operating with a microplate reader, a fluorescein detection cartridge (excitation range 485/20 nm, emission range 535/25 nm for both parallel and perpendicular components) and the SpectraMax Pro 6.1 software (Molecular Devices, San Jose, CA, USA). Samples were placed in polystyrene black flat bottom 96-well microplates (Cellstar, Greiner bio-one, Frickenhausen, Germany) with 20 µL final volume in each well. If not stated otherwise, the final concentration of fluorescent ligands was 200 nM. The buffer was either 20 mM MES pH 6.5, salt-free or with 250 mM NaCl, or 20 mM Tris pH 8.0 salt-free or with 100 mM NaCl, supplemented with 0.01% Brij-35. Mixing was done using the corresponding plate reader option. The temperature was set to 20 °C. Data were recorded in top reading mode. Measurements were done in triplicate and after an incubation time of 30 min, if not indicated otherwise. Fluorescence polarization (FP) in mFP units was determined from the parallel (I∥) and perpendicular (I⊥) components of the emitted light according to Equation (4). A grating factor G of 1.2 was determined using 1 nM fluorescein in 1 mM NaOH and assuming a theoretical FP of 27 mFP [48]. Background signal was measured from wells containing only buffer, and the mean value was subtracted from each I∥ and I⊥ component. (4) FP (mP)=1000×(I∥−G∗I⊥)/(I∥+G×I⊥)
To assess inhibition of a complex between a fluorescent probe and N protein by peptides or the M76 molecule, the concentration of N was set to work with an FP range comprised between FPmin and ~80% FPmax. Peptides were added from 1 or 2 mM stock solution in water at neutral pH. M76 was added from 10 or 20 mM stock solutions in ethanol or in DMSO. […] Inhibition data were fitted with Origin 7, and in parallel with the Excel solver module. All data were compatible with an absence of cooperativity. FPmax and FPmin were fitted, and the maximal inhibition %i,max was set to 100%. (11) %i=100×[1−(FP−FPmin)/(FPmax−FPmin)] (12) %i=%i,max×[inhibitor]/[inhibitor]+IC50
Inhibition constants Ki were calculated on the IC50-to-Ki converter for a protein-ligand-inhibitor system (https://bioinfo-abcc.ncifcrf.gov/IC50_Ki_Converter/index.php, accessed on 24 August 2022), assuming a competitive mechanism (Equation (13)). This tool takes into account the free concentrations of protein and ligand. (13) Ki=(IC50−[protein]/2)/([peptide]/Kd+1)

[1] = molecular target: T3, RSV nucleoprotein N-terminal domain NNTD (residues 31–252) (human respiratory syncytial virus, UniProt P03418 31-252); test: fluorescence polarisation; 200 nM F11, NNTD varied; 20 mM MES pH 6.5 without salt, 0.01% Brij-35; 20 °C; single site plus a linear contribution; conditions: both partners purified
T3 construct: N-terminal domain of human RSV nucleoprotein N, residues 31-252; 15N-labelled for the NMR titration; also called N(31–252); 15N-NNTD; source: E. coli BL21(DE3), pET-N(31–252), purified as described previously [21]
T3 sequence (looked up): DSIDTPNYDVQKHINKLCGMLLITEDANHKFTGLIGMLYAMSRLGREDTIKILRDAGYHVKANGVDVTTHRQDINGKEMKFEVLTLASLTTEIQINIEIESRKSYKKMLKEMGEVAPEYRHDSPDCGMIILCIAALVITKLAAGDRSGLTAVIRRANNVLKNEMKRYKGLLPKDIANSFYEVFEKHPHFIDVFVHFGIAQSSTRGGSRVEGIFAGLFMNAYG

[2] = molecular target: T3, RSV nucleoprotein N-terminal domain …; test: fluorescence polarisation; 200 nM F11, NNTD 0.1–120 µM; 20 mM MES pH 6.5, 250 mM NaCl, 0.01% Brij-35; 20 °C; single site model; saturation not reached; conditions: both partners purified

T2 sequence (P03418 whole entry, looked up, the tested form may be a part, one chain of several): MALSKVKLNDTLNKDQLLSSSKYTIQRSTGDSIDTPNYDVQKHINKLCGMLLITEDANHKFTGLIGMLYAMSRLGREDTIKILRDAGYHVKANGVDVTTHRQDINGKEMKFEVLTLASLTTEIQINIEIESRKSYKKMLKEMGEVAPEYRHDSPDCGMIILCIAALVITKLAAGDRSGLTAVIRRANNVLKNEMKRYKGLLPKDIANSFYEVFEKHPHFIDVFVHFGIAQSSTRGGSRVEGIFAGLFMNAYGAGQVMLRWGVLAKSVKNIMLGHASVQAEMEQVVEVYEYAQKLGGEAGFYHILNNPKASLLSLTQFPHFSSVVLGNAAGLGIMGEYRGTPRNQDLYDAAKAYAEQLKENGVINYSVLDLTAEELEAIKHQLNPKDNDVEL

## O=C(O)c1cc(C(=O)O)n(Cc2ccc(Cl)cc2Cl)n1 [M76, 1-(2,4-dichlorobenzyl)-1H-pyrazole-3,5-dicarboxylic acid]
RSV NNTD
  IC50: 28 ± 5 µM
  Ki: 2.5 µM
RSV N-RNA complex; fluorescent probe F7E 200 nM, 10 µM N-RNA, Tris pH 8 without salt, read-out: IC50
  IC50: 48 ± 5 µM
RSV N-RNA complex; fluorescent probe F7E 200 nM, 10 µM N-RNA, from IC50 and Kd 2.5 µM, read-out: Ki
  Ki: 8 µM
RSV N-RNA complex; fluorescent probe F11 200 nM, 10 µM N-RNA, Tris pH 8 without salt, read-out: IC50
  IC50: 12.6 µM and 13 µM
RSV N-RNA complex; fluorescent probe F11 200 nM, 10 µM N-RNA, from IC50 and Kd 7.6 µM with IC50-to-Ki server, read-out: Ki
  Ki: 3 µM
RSV N-RNA complex; fluorescent probe fluorescein 1 200 nM, 20 µM N-RNA, read-out: M76 IC50
  IC50: 27 ± 2 µM
RSV N-RNA complex; fluorescent probe fluorescein 1, 20 µM N-RNA, from IC50 and Kd, read-out: M76 Ki
  Ki: 13 µM
RSV N-RNA complex; fluorescent probe fluorescein ethyl ester 3 200 nM, 20 µM N-RNA, read-out: M76 IC50
  IC50: 65 ± 9 µM
RSV N-RNA complex; fluorescent probe fluorescein ethyl ester 3, 20 µM N-RNA, from IC50 and Kd, read-out: M76 Ki
  Ki: 50 µM
RSV N-RNA complex; fluorescent probe fluorescein methyl ester 2 200 nM, 20 µM N-RNA, read-out: M76 IC50
  IC50: 46 ± 7 µM
RSV N-RNA complex; fluorescent probe fluorescein methyl ester 2, 20 µM N-RNA, from IC50 and Kd, read-out: M76 Ki
  Ki: 32 µM
RSV N-RNA complex; probe BCN5E 200 nM, [N-RNA] 2 µM, Tris pH 8, read-out: Fitted IC50
  IC50: 7 ± 0.6 µM
RSV N-RNA complex; probe BCN5E 200 nM, [N-RNA] 20 µM, Tris pH 8, read-out: Fitted IC50
  IC50: 26 ± 2 µM
RSV N-RNA complex; probe BCN5E, [N-RNA] 2 µM, IC50-to-Ki server, read-out: Ki
  Ki: 4.8 µM
RSV N-RNA complex; probe BCN5E, [N-RNA] 20 µM, IC50-to-Ki server, read-out: Ki
  Ki: 3.6 µM
RSV N-RNA complex; probe BCN5E, [N-RNA] 2 and 20 µM, read-out: Ki values for inhibition of BCN5E
  Ki: 3.6 to 4.8 µM
RSV N-RNA complex; probe BCN6E 200 nM, [N-RNA] 2 µM, Tris pH 8, read-out: Fitted IC50
  IC50: 2.7 ± 0.2 µM
RSV N-RNA complex; probe BCN6E 200 nM, [N-RNA] 10 µM, Tris pH 8, read-out: Fitted IC50
  IC50: 14 ± 1 µM
RSV N-RNA complex; probe BCN6E, [N-RNA] 2 µM, IC50-to-Ki server, read-out: Ki
  Ki: 0.7 µM
RSV N-RNA complex; probe BCN6E, [N-RNA] 10 µM, IC50-to-Ki server, read-out: Ki
  Ki: 1.1 µM
RSV N-RNA complex; probe BCN8E 200 nM, [N-RNA] 2 µM, Tris pH 8, read-out: Fitted IC50
  IC50: 4.5 ± 0.4 µM
RSV N-RNA complex; probe BCN8E 200 nM, [N-RNA] 5 µM, Tris pH 8, read-out: Fitted IC50
  IC50: 13 ± 2 µM
RSV N-RNA complex; probe BCN8E, [N-RNA] 2 µM, IC50-to-Ki server, read-out: Ki
  Ki: 1.3 µM
RSV N-RNA complex; probe BCN8E, [N-RNA] 5 µM, IC50-to-Ki server, read-out: Ki
  Ki: 2 µM
RSV N-RNA complex; probe BCN10EE 200 nM, [N-RNA] 2 µM, Tris pH 8, read-out: Fitted IC50
  IC50: 8.9 ± 0.6 µM
RSV N-RNA complex; probe BCN10EE 200 nM, inhibitor M76, [N-RNA] 1 µM, Tris pH 8, read-out: Fitted IC50
  IC50: 8.5 ± 0.6 µM
RSV N-RNA complex; probe BCN10EE, [N-RNA] 2 µM, IC50-to-Ki server, read-out: Ki
  Ki: 0.5 µM
RSV N-RNA complex; probe BCN10EE, inhibitor M76, [N-RNA] 1 µM, IC50-to-Ki server, read-out: Ki
  Ki: 1.1 µM
RSV N-RNA complex; probe BCN11SE 200 nM, [N-RNA] 5 µM, Tris pH 8, read-out: Fitted IC50
  IC50: 17 ± 2 µM
RSV N-RNA complex; probe BCN11SE, [N-RNA] 5 µM, IC50-to-Ki server, read-out: Ki
  Ki: 1.8 µM

B1: F11 (fluorescein-5-thiourea-labelled RSV P11 peptide) (peptide)
peptide: {FITC}-DSDNDLSLEDF
notes: C-terminal 11 residues of RSV phosphoprotein P; also called F_(11SS); FTU-P11; source: bought P11 peptide (GeneCust), FITC coupled in solution, HPLC purified
[1]
  Kd: 0.6 ± 0.1 µM
[2]
  Kd: 90 ± 15 µM
